Measured values as given in ChEMBL document CHEMBL3352227, “Synthesis, antimycobacterial and antibacterial evaluation of l-[(1R, 2S)-2-fluorocyclopropyl]fluoroquinolone derivatives containing an oxime functional moiety” (Eur J Med Chem, 2014).
≈ marks a conversion by molar mass, not a printed value.

System: Klebsiella pneumoniae
Assay: Antibacterial activity against extended-spectrum beta-lactamase producin Klebsiella pneumoniae 12-4 after 18 to 24 hrs by standard twofold serial dilution method
Assay type: functional

For `CO/N=C1/CCN(c2c(F)cc3c(=O)c(C(=O)O)cn([C@@H]4C[C@@H]4F)c3c2Cl)CC1N` (some centres not stated), which MIC is on record?
Its MIC is 32 µg/mL (≈ 72.6 µM).

System: Pseudomonas aeruginosa
Assay: Antibacterial activity against Pseudomonas aeruginosa 12-12 after 18 to 24 hrs by standard twofold serial dilution method
Assay type: functional

For `CO/N=C1/CCN(c2c(F)cc3c(=O)c(C(=O)O)cn([C@@H]4C[C@@H]4F)c3c2Cl)CC1N` (some centres not stated), which MIC is on record?
The MIC was 16 µg/mL (≈ 36.3 µM).

System: Klebsiella pneumoniae
Assay: Antibacterial activity against extended-spectrum beta-lactamase producin Klebsiella pneumoniae 12-7 after 18 to 24 hrs by standard twofold serial dilution method
Assay type: functional

Which MIC does the source give for `CO/N=C1/CCN(c2c(F)cc3c(=O)c(C(=O)O)cn([C@@H]4C[C@@H]4F)c3c2Cl)CC1N` (some centres not stated) here?
The MIC was 16 µg/mL (≈ 36.3 µM).

System: Staphylococcus aureus
Assay: Antibacterial activity against methicillin-resistant Staphylococcus aureus 12-4 after 18 to 24 hrs by standard twofold serial dilution method
Assay type: functional

Which MIC does the source give for `CO/N=C1/CCN(c2c(F)cc3c(=O)c(C(=O)O)cn([C@@H]4C[C@@H]4F)c3c2Cl)CC1N` (some centres not stated) here?
Its MIC is 64 µg/mL (≈ 145 µM).

System: Mycobacterium tuberculosis
Assay: Antimycobacterial activity against Mycobacterium tuberculosis H37Rv ATCC 27294 by MABA method
Assay type: functional

Which MIC does the source give for `CO/N=C1/CCN(c2c(F)cc3c(=O)c(C(=O)O)cn([C@@H]4C[C@@H]4F)c3c2Cl)CC1N` (some centres not stated) here?
Its MIC is 16 µg/mL (≈ 36.3 µM).

System: Klebsiella pneumoniae
Assay: Antibacterial activity against Klebsiella pneumoniae 12-1 after 18 to 24 hrs by standard twofold serial dilution method
Assay type: functional

How did the MIC turn out when `CO/N=C1/CCN(c2c(F)cc3c(=O)c(C(=O)O)cn([C@@H]4C[C@@H]4F)c3c2Cl)CC1N` (some centres not stated) was run?
The MIC was 2 µg/mL (≈ 4.54 µM).

System: Klebsiella pneumoniae
Assay: Antibacterial activity against extended-spectrum beta-lactamase producin Klebsiella pneumoniae 12-3 after 18 to 24 hrs by standard twofold serial dilution method
Assay type: functional

How did the MIC turn out when `CO/N=C1/CCN(c2c(F)cc3c(=O)c(C(=O)O)cn([C@@H]4C[C@@H]4F)c3c2Cl)CC1N` (some centres not stated) was run?
Its MIC is over 128 µg/mL.

System: Escherichia coli
Assay: Antibacterial activity against extended-spectrum beta-lactamase producing Escherichia coli 12-3 after 18 to 24 hrs by standard twofold serial dilution method
Assay type: functional

For `CO/N=C1/CCN(c2c(F)cc3c(=O)c(C(=O)O)cn([C@@H]4C[C@@H]4F)c3c2Cl)CC1N` (some centres not stated), which MIC is on record?
Its MIC is 32 µg/mL (≈ 72.6 µM).

System: Staphylococcus aureus
Assay: Antibacterial activity against methicillin-sensitive Staphylococcus aureus 12-1 after 18 to 24 hrs by standard twofold serial dilution method
Assay type: functional

How did the MIC turn out when `CO/N=C1/CCN(c2c(F)cc3c(=O)c(C(=O)O)cn([C@@H]4C[C@@H]4F)c3c2Cl)CC1N` (some centres not stated) was run?
The MIC was 0.25 µg/mL (≈ 0.567 µM).

System: Staphylococcus aureus
Assay: Antibacterial activity against methicillin-resistant Staphylococcus aureus 12-5 after 18 to 24 hrs by standard twofold serial dilution method
Assay type: functional

For `CO/N=C1/CCN(c2c(F)cc3c(=O)c(C(=O)O)cn([C@@H]4C[C@@H]4F)c3c2Cl)CC1N` (some centres not stated), which MIC is on record?
The MIC was 32 µg/mL (≈ 72.6 µM).

System: Staphylococcus aureus
Assay: Antibacterial activity against methicillin-sensitive Staphylococcus aureus 12-4 after 18 to 24 hrs by standard twofold serial dilution method
Assay type: functional

Which MIC does the source give for `CO/N=C1/CCN(c2c(F)cc3c(=O)c(C(=O)O)cn([C@@H]4C[C@@H]4F)c3c2Cl)CC1N` (some centres not stated) here?
The MIC was 0.25 µg/mL (≈ 0.567 µM).

System: Escherichia coli
Assay: Antibacterial activity against Escherichia coli 12-1 after 18 to 24 hrs by standard twofold serial dilution method
Assay type: functional

With `CO/N=C1/CCN(c2c(F)cc3c(=O)c(C(=O)O)cn([C@@H]4C[C@@H]4F)c3c2Cl)CC1N` (some centres not stated) as the compound, how does the MIC read?
The MIC was 2 µg/mL (≈ 4.54 µM).

System: Staphylococcus epidermidis
Assay: Antibacterial activity against methicillin-sensitive Staphylococcus epidermidis 12-6 after 18 to 24 hrs by standard twofold serial dilution method
Assay type: functional

`CO/N=C1/CCN(c2c(F)cc3c(=O)c(C(=O)O)cn([C@@H]4C[C@@H]4F)c3c2Cl)CC1N` (some centres not stated) was tested. Which MIC did it give?
Its MIC is 0.5 µg/mL (≈ 1.13 µM).

System: Staphylococcus aureus
Assay: Antibacterial activity against methicillin-sensitive Staphylococcus aureus 12-5 after 18 to 24 hrs by standard twofold serial dilution method
Assay type: functional

Which MIC does the source give for `CO/N=C1/CCN(c2c(F)cc3c(=O)c(C(=O)O)cn([C@@H]4C[C@@H]4F)c3c2Cl)CC1N` (some centres not stated) here?
The MIC was 0.25 µg/mL (≈ 0.567 µM).

System: Staphylococcus epidermidis
Assay: Antibacterial activity against methicillin-sensitive Staphylococcus epidermidis 12-1 after 18 to 24 hrs by standard twofold serial dilution method
Assay type: functional

Which MIC does the source give for `CO/N=C1/CCN(c2c(F)cc3c(=O)c(C(=O)O)cn([C@@H]4C[C@@H]4F)c3c2Cl)CC1N` (some centres not stated) here?
The MIC was 0.5 µg/mL (≈ 1.13 µM).

System: Klebsiella pneumoniae
Assay: Antibacterial activity against Klebsiella pneumoniae 12-4 after 18 to 24 hrs by standard twofold serial dilution method
Assay type: functional

With `CO/N=C1/CCN(c2c(F)cc3c(=O)c(C(=O)O)cn([C@@H]4C[C@@H]4F)c3c2Cl)CC1N` (some centres not stated) as the compound, how does the MIC read?
Its MIC is 1 µg/mL (≈ 2.27 µM).

System: Klebsiella pneumoniae
Assay: Antibacterial activity against Klebsiella pneumoniae 12-2 after 18 to 24 hrs by standard twofold serial dilution method
Assay type: functional

For `CO/N=C1/CCN(c2c(F)cc3c(=O)c(C(=O)O)cn([C@@H]4C[C@@H]4F)c3c2Cl)CC1N` (some centres not stated), which MIC is on record?
Its MIC is 2 µg/mL (≈ 4.54 µM).

System: Pseudomonas aeruginosa
Assay: Antibacterial activity against Pseudomonas aeruginosa 12-14 after 18 to 24 hrs by standard twofold serial dilution method
Assay type: functional

For `CO/N=C1/CCN(c2c(F)cc3c(=O)c(C(=O)O)cn([C@@H]4C[C@@H]4F)c3c2Cl)CC1N` (some centres not stated), which MIC is on record?
Its MIC is 128 µg/mL (≈ 290 µM).

System: Staphylococcus epidermidis
Assay: Antibacterial activity against methicillin-sensitive Staphylococcus epidermidis 12-8 after 18 to 24 hrs by standard twofold serial dilution method
Assay type: functional

For `CO/N=C1/CCN(c2c(F)cc3c(=O)c(C(=O)O)cn([C@@H]4C[C@@H]4F)c3c2Cl)CC1N` (some centres not stated), which MIC is on record?
Its MIC is 4 µg/mL (≈ 9.07 µM).

System: Staphylococcus epidermidis
Assay: Antibacterial activity against methicillin-resistant Staphylococcus epidermidis 12-6 after 18 to 24 hrs by standard twofold serial dilution method
Assay type: functional

`CO/N=C1/CCN(c2c(F)cc3c(=O)c(C(=O)O)cn([C@@H]4C[C@@H]4F)c3c2Cl)CC1N` (some centres not stated) was tested. Which MIC did it give?
Its MIC is 32 µg/mL (≈ 72.6 µM).

System: Escherichia coli
Assay: Antibacterial activity against extended-spectrum beta-lactamase producing Escherichia coli 12-14 after 18 to 24 hrs by standard twofold serial dilution method
Assay type: functional

`CO/N=C1/CCN(c2c(F)cc3c(=O)c(C(=O)O)cn([C@@H]4C[C@@H]4F)c3c2Cl)CC1N` (some centres not stated) was tested. Which MIC did it give?
The MIC was over 128 µg/mL.

System: Staphylococcus epidermidis
Assay: Antibacterial activity against methicillin-sensitive Staphylococcus epidermidis 12-3 after 18 to 24 hrs by standard twofold serial dilution method
Assay type: functional

Which MIC does the source give for `CO/N=C1/CCN(c2c(F)cc3c(=O)c(C(=O)O)cn([C@@H]4C[C@@H]4F)c3c2Cl)CC1N` (some centres not stated) here?
The MIC was 1 µg/mL (≈ 2.27 µM).

System: Staphylococcus aureus
Assay: Antibacterial activity against methicillin-resistant Staphylococcus aureus 12-2 after 18 to 24 hrs by standard twofold serial dilution method
Assay type: functional

How did the MIC turn out when `CO/N=C1/CCN(c2c(F)cc3c(=O)c(C(=O)O)cn([C@@H]4C[C@@H]4F)c3c2Cl)CC1N` (some centres not stated) was run?
The MIC was 32 µg/mL (≈ 72.6 µM).

System: Escherichia coli
Assay: Antibacterial activity against Escherichia coli ATCC 25922 after 18 to 24 hrs by standard twofold serial dilution method
Assay type: functional

With `CO/N=C1/CCN(c2c(F)cc3c(=O)c(C(=O)O)cn([C@@H]4C[C@@H]4F)c3c2Cl)CC1N` (some centres not stated) as the compound, how does the MIC read?
Its MIC is 1 µg/mL (≈ 2.27 µM).

System: Escherichia coli
Assay: Antibacterial activity against extended-spectrum beta-lactamase producing Escherichia coli 12-15 after 18 to 24 hrs by standard twofold serial dilution method
Assay type: functional

Which MIC does the source give for `CO/N=C1/CCN(c2c(F)cc3c(=O)c(C(=O)O)cn([C@@H]4C[C@@H]4F)c3c2Cl)CC1N` (some centres not stated) here?
Its MIC is over 128 µg/mL.

System: Staphylococcus aureus
Assay: Antibacterial activity against Staphylococcus aureus ATCC 25923 after 18 to 24 hrs by standard twofold serial dilution method
Assay type: functional

With `CO/N=C1/CCN(c2c(F)cc3c(=O)c(C(=O)O)cn([C@@H]4C[C@@H]4F)c3c2Cl)CC1N` (some centres not stated) as the compound, how does the MIC read?
Its MIC is 1 µg/mL (≈ 2.27 µM).

System: Streptococcus pneumoniae
Assay: Antibacterial activity against Streptococcus pneumoniae 12-18 after 18 to 24 hrs by standard twofold serial dilution method
Assay type: functional

For `CO/N=C1/CCN(c2c(F)cc3c(=O)c(C(=O)O)cn([C@@H]4C[C@@H]4F)c3c2Cl)CC1N` (some centres not stated), which MIC is on record?
Its MIC is 8 µg/mL (≈ 18.1 µM).

System: Klebsiella pneumoniae
Assay: Antibacterial activity against extended-spectrum beta-lactamase producin Klebsiella pneumoniae 12-14 after 18 to 24 hrs by standard twofold serial dilution method
Assay type: functional

`CO/N=C1/CCN(c2c(F)cc3c(=O)c(C(=O)O)cn([C@@H]4C[C@@H]4F)c3c2Cl)CC1N` (some centres not stated) was tested. Which MIC did it give?
The MIC was over 128 µg/mL.

System: Escherichia coli
Assay: Antibacterial activity against extended-spectrum beta-lactamase producing Escherichia coli 12-2 after 18 to 24 hrs by standard twofold serial dilution method
Assay type: functional

`CO/N=C1/CCN(c2c(F)cc3c(=O)c(C(=O)O)cn([C@@H]4C[C@@H]4F)c3c2Cl)CC1N` (some centres not stated) was tested. Which MIC did it give?
The MIC was over 128 µg/mL.

System: Staphylococcus aureus
Assay: Antibacterial activity against methicillin-sensitive Staphylococcus aureus 12-2 after 18 to 24 hrs by standard twofold serial dilution method
Assay type: functional

For `CO/N=C1/CCN(c2c(F)cc3c(=O)c(C(=O)O)cn([C@@H]4C[C@@H]4F)c3c2Cl)CC1N` (some centres not stated), which MIC is on record?
The MIC was 0.25 µg/mL (≈ 0.567 µM).

System: Staphylococcus epidermidis
Assay: Antibacterial activity against methicillin-resistant Staphylococcus epidermidis 12-1 after 18 to 24 hrs by standard twofold serial dilution method
Assay type: functional

`CO/N=C1/CCN(c2c(F)cc3c(=O)c(C(=O)O)cn([C@@H]4C[C@@H]4F)c3c2Cl)CC1N` (some centres not stated) was tested. Which MIC did it give?
Its MIC is 16 µg/mL (≈ 36.3 µM).

System: Streptococcus pneumoniae
Assay: Antibacterial activity against Streptococcus pneumoniae ATCC 49619 after 18 to 24 hrs by standard twofold serial dilution method
Assay type: functional

`CO/N=C1/CCN(c2c(F)cc3c(=O)c(C(=O)O)cn([C@@H]4C[C@@H]4F)c3c2Cl)CC1N` (some centres not stated) was tested. Which MIC did it give?
Its MIC is 1 µg/mL (≈ 2.27 µM).
